In patent US12188040B2, “Method for enhancing gene expression using AAV vector” (priority 2018, dated 2025):
“And” between values parts separate entries of the source, which are not always exact repeats. Equal entries are not always repeated. Where two headings read alike, the source gives them in different places.

System: HEK293 cells
Conditions: for D/L ratio of expression intensity: 132 mM; for GFP intensity: Exp 2, AAV3B 6×10^7 vg/well, iso-osmotic additives: sucrose 125.0, glucose 132.3, mannitol 132.3, NaCl 71.5 mM; for Effect of enhancement compared among the sugars: monosaccharides 100 or 200 mM
Procedure: As the first procedure, 4 methods of the addition were carried out, including adding sucrose immediately (5 minutes or less) after the administration of the AAV vector, and the administration of the AAV vector immediately (5 minutes or less) after, 10 minutes after or 1 hour after adding sucrose to cells.
In the same manner as the above-described procedure, the GFP expression level was measured 3 days later.
In the same manner as the above-described procedures, the GFP expression level was measured 3 days later.
AAV3B-CMV-AcGFP was mixed in advance with sucrose at each of various concentrations, and the mixture was allowed to stand at room temperature for 1 hour followed by administration to cells. […] In order to prevent cell damage due to a buffer at the time of dilution of sucrose, medium replacement was carried out using a sucrose solution having the same concentration that was prepared by the medium 3 hours after the administration.

[1] = Exp 5, AAV3B 1×10^8 vg/well premixed 1 h, glucose 132 mM final, Day 1
[2] = Exp 5, AAV3B 1×10^8 vg/well premixed 1 h, glucose 132 mM final, Day 2
[3] = Exp 5, AAV3B 1×10^8 vg/well premixed 1 h, glucose 132 mM final, Day 3
[4] = Exp 8, disaccharide 100 mM in medium, AAV3B 1×10^8 vg/well, Day 3
[5] = Exp 8, disaccharide 100 mM, Day 3
[6] = Exp 8, disaccharide 125 mM in medium, AAV3B 1×10^8 vg/well, Day 3
[7] = Exp 8, disaccharide 125 mM, Day 3
[8] = Exp 8, disaccharide 150 mM in medium, AAV3B 1×10^8 vg/well, Day 3
[9] = Exp 8, disaccharide 150 mM, AAV3B 1×10^8 vg/well, Day 1
[10] = Exp 8, disaccharide 150 mM, AAV3B 1×10^8 vg/well, Day 2
[11] = Exp 8, disaccharide 150 mM, AAV3B 1×10^8 vg/well, Day 6
[12] = Exp 8, disaccharide 150 mM, Day 3
[13] = Exp 9, monosaccharide 100 mM, 3 days
[14] = Exp 9, monosaccharide 100 mM, AAV3B 1×10^8 vg/well premixed 1 h, 3 days
[15] = Exp 9, monosaccharide 200 mM, 3 days
[16] = Exp 9, monosaccharide 200 mM, AAV3B 1×10^8 vg/well premixed 1 h, 3 days

SMILES: O=C[C@H](O)[C@@H](O)[C@H](O)[C@H](O)CO [D-Glucose, D-glucose]
- D/L ratio of expression intensity (Exp 5, Day 1): 1.5 times
- D/L ratio of expression intensity (Exp 5, Day 2): 1.8
- D/L ratio of expression intensity (Exp 5, Day 3): 2.1 times
- Fluorescence Intensity [1]: 161.0
- Fluorescence Intensity [2]: 1232.5
- Fluorescence Intensity [3]: 2966.3

SMILES: O=C[C@@H](O)[C@H](O)[C@@H](O)[C@@H](O)CO [L-Glucose, L-glucose, reference compound]
- Fluorescence Intensity [1]: 104.7
- Fluorescence Intensity [2]: 669.2
- Fluorescence Intensity [3]: 1397.7
- Relativeness (vs Glucose(−)) (Exp 5, glucose 132 mM final, Day 1): 11 times and 11.0 times

SMILES: [Cl-].[Na+] [NaCl, reference compound]
- GFP intensity (3 days): 2.5

SMILES: OC[C@H]1O[C@H](O[C@H]2O[C@H](CO)[C@@H](O)[C@H](O)[C@H]2O)[C@H](O)[C@@H](O)[C@@H]1O [Trehalose, trehalose]
- Fluorescence Intensity [4]: 995.7
- Relativeness (vs No Sugar) [5]: 1.6
- Fluorescence Intensity [6]: 1249.0
- Relativeness (vs No Sugar) [7]: 2.1
- Fluorescence Intensity [8]: 1903.7
- Fluorescence Intensity [9]: 230.7
- Fluorescence Intensity [10]: 949.8
- Fluorescence Intensity [11]: 6490.7
- Relativeness (vs No Sugar) [12]: 3.1

SMILES: OC[C@H]1O[C@@H](O[C@H]2[C@H](O)[C@@H](O)C(O)O[C@@H]2CO)[C@H](O)[C@@H](O)[C@H]1O (some centres unmarked) [Lactose, lactose]
- Fluorescence Intensity [4]: 1189.0
- Relativeness (vs No Sugar) [5]: 2.0
- Fluorescence Intensity [6]: 1880.3
- Relativeness (vs No Sugar) [7]: 3.1
- Fluorescence Intensity [8]: 3606.8
- Fluorescence Intensity [9]: 503.2
- Fluorescence Intensity [10]: 2097.0
- Fluorescence Intensity [11]: 10798.2

SMILES: OC[C@@H](O)[C@@H](O)[C@H](O)[C@H](O)CO [Mannitol, mannitol, reference compound]
- GFP intensity (3 days): 342.8

SMILES: O=C[C@H](O)[C@@H](O)[C@@H](O)[C@H](O)CO [Galactose, galactose]
- Relativeness (vs (−)) [13]: 1.3
- Fluorescence Intensity [14]: 189.5
- Relativeness (vs (−)) [15]: 4.0 times
- Fluorescence Intensity [16]: 583.5
- Effect of enhancement compared among the sugars (Exp 9, 3 days): lower than those of the other sugars

SMILES: OC[C@H]1O[C@H](O[C@H]2[C@H](O)[C@@H](O)[C@H](O)O[C@@H]2CO)[C@H](O)[C@@H](O)[C@@H]1O [Maltose, maltose]
- Fluorescence Intensity [4]: 1158.0
- Relativeness (vs No Sugar) [5]: 1.9
- Fluorescence Intensity [6]: 1833.5
- Relativeness (vs No Sugar) [7]: 3.0
- Fluorescence Intensity [8]: 3281.8
- Fluorescence Intensity [9]: 532.7
- Fluorescence Intensity [10]: 2009.0
- Relativeness (vs No Sugar) [12]: 5.4

SMILES: O=C(CO)[C@@H](O)[C@H](O)[C@H](O)CO [Fructose, fructose]
- Relativeness (vs (−)) [13]: 2.7
- Fluorescence Intensity [14]: 402.0
- Relativeness (vs (−)) [15]: 16.2 times
- Fluorescence Intensity [16]: 2378.5
- Effect of enhancement compared among the sugars (Exp 9, 3 days): comparable to that of sucrose
